# Assay results taken from patent US20250376473A1, “PRMTS INHIBITOR AND USE THEREOF” (Cytosinlab Therapeutics Co., Ltd., priority 2022, published 2025).
# pIC50: −log10 of the molar value. Read-outs that look alike come from different tables or passages of the source.
# How the values were obtained:
# [1] = tested on: HCT116-MTAP-KO cells (HCT116 MTAP null); assay: Proliferation inhibition of HCT116 MTAP-KO cells in vitro (CellTiter Glo); type: cell-based; conditions: 6 days, 9 concentrations starting from 3 μM, read-out: Cell proliferation inhibition rate HCT116 MTAP null IC50 (nm)
# From the text: (§1) Biological Test Example 2 Proliferation Inhibition of HCT116 and HCT116 MTAP-KO Cells in Vitro
# (§2) HCT116 cell line was purchased from the Chinese Academy of Sciences Cell Bank, and the MTAP gene was knocked out by CRISPR/Cas9 technology to obtain HCT116-MTAP-KO cell line.
# (§3) McCoy's 5A medium (Gibco, catalog No. 16600082), fetal bovine serum (Gibco, catalog No. 10099141C), penicillin-streptomycin double antibody (Gibco, catalog No. 15140122), pancreatic enzyme (Gibco, catalog No. 25200056), CellTiter Glo assay kit (Promega, catalog No. G7572), 384-well transparent flat-bottomed black walled cell culture plate (Corning, catalog No. 3764), ultra micro sampler (Tecan, catalog No.D300e), Multimode reader (Biotek, catalog No. SynergyHTX)
# (§4) 1. Cell culture: HCT116 and HCT116-MTAP-KO cells were cultured in McCoy'5A medium+10% fetal bovine serum+1% penicillin-streptomycin double antibody; to ensure that they were always in the logarithmic growth phase and the cell viability greater than 95%.
# (§5) 2. Compound concentration gradient preparation: The compound to be tested was added to a 384-well plate using an ultra micro sampler, starting from 30 μM (HCT116 cells) or 3 μM (HCT116-MTAP-KO cells), and diluted with DMSO at 3 times for a total of 9 concentrations and set up three duplicate wells.
# (§6) 3. Treatment of cells with compounds: Trypsin-digested HCT116 or HCT116-MTAP-KO cell suspension was added to the 384-well plates spotted with the compounds to be tested at 40 μL per well, i.e., 100 cells per well, and the final concentration of DMSO was 0.4%. The cell culture plate was incubated at 37° C. in a 5% CO2 incubator for 6 days.
# (§7) 4. Detection: 20 μL of CellTiter Glo reagent was added to each well of the cell culture plate and incubated at room temperature for 30 minutes. A multimode reader was used to detect the luminescence signal at […].
# (§8) The data was fitted with GraphPad Prism 8.0 software using a four parameter inhibitor-reaction model to obtain the IC50 value (half inhibitory concentration) of the test compounds.
# HCT116 MTAP WT cells = assay: Proliferation inhibition of HCT116 cells in vitro (CellTiter Glo); type: cell-based; conditions: 6 days, 9 concentrations starting from 30 μM, read-out: Cell proliferation inhibition rate HCT116 MTAP WT IC50 (nm)
# From the text: as §1, §2, §3, §4, §5, §6, §7, §8
Compound,"pIC50 ([1]; HCT116-MTAP null, 144 h)","pIC50 (HCT116 MTAP WT cells; Homo sapiens, HCT-116, 144 h)",pIC50 [1],pIC50 (HCT116 MTAP WT cells)
Cc1ncc2c(N)nc3ccc(C(=O)N(Cc4ccc(C(F)(F)F)cn4)C(C)c4ncccn4)cc3n12 (stereo not drawn) [Example 2],6.00 to 7.00,5.00 to 6.00,,
Cc1ncc2c(N)nc3cc(F)c(C(=O)N(Cc4ccc(C(F)(F)F)cn4)c4cn(C)nc4C(F)(F)F)cc3n12 [Example 178],> 7.00,5.00 to 6.00,,
CCOc1ccc(CN(CC)C(=O)c2cc3c(cc2F)nc(N)c2cnc(C)n23)nn1 [Example 102],> 7.00,5.00 to 6.00,,
CCN(Cc1nc(-c2cnn(C(F)(F)F)c2)cs1)C(=O)c1cc2c(cc1F)nc(N)c1cnc(C)n12 [Example 80],6.00 to 7.00,5.00 to 6.00,,
Cc1ncn2c1c(N)nc1cc(F)c(C(=O)N(c3cnn(C)c3)C3COc4ccccc43)cc12 (stereo not drawn) [Example 121],,,> 7.00,5.00 to 6.00
Cc1ncn2c1c(N)nc1cc(F)c(C(=O)N3[C@H](C)COC[C@@H]3c3ccc(C(F)(F)F)cn3)cc12 [Example 153],> 7.00,6.00 to 7.00,,
CCN(Cc1ccc(C(F)(F)F)nn1)C(=O)c1cc2c(cc1F)nc(N)c1cnc(C)n12 [Example 81],6.00 to 7.00,5.00 to 6.00,,
Cc1ncc2c(N)nc3cc(F)c(C(=O)N(C)C4COc5cc(-c6cnn(C(F)(F)F)c6)ccc54)cc3n12 (stereo not drawn) [Example 46],5.00 to 6.00,6.00 to 7.00,,
COc1ccc(N(Cc2ccc(C(F)(F)F)cn2)C(=O)c2cc3c(cc2F)nc(N)c2cnc(C)n23)cn1 [Example 124],> 7.00,5.00 to 6.00,,
CCn1cc(N(Cc2ccc(OC3CC3)cn2)C(=O)c2cc3c(cc2F)nc(N)c2c(C)ncn23)c(C)n1 [Example 177],> 7.00,6.00 to 7.00,,
COc1nn(C)cc1N(Cc1ccc(C(F)(F)F)cn1)C(=O)c1cc2c(cc1F)nc(N)c1cnc(C)n12 [Example 138],> 7.00,5.00 to 6.00,,
Cc1ncc2c(N)nc3cc(F)c(C(=O)N4C(C)COCC4c4cnc(C(F)(F)F)s4)cc3n12 (stereo not drawn) [Example 89],> 7.00,5.00 to 6.00,,
CCn1cc(N(Cc2ccc(C(F)(F)F)cn2)C(=O)c2cc3c(cc2F)nc(N)c2c(C)ncn23)c(C)n1 [Example 150],> 7.00,6.00 to 7.00,,
Cc1ncc2c(N)nc3cc(F)c(C(=O)N4CCC(c5ccc(C(F)(F)F)cn5)C4)cc3n12 (stereo not drawn) [Example 159],6.00 to 7.00,5.00 to 6.00,,
COc1ccc(CN(C(=O)c2cc3c(cc2F)nc(N)c2cnc(C)n23)c2cn(C)nc2C)nn1 [Example 131],> 7.00,5.00 to 6.00,,
Cc1ncc2c(N)nc3cc(F)c(C(=O)N4C(C)COC[C@@H]4c4ncc(C(F)(F)F)cc4F)cc3n12 (stereo partly drawn) [Example 34],> 7.00,5.00 to 6.00,,
Cc1nn(CCO)cc1N(Cc1ccc(C(F)(F)F)cn1)C(=O)c1cc2c(cc1F)nc(N)c1c(C)ncn12 [Example 165],> 7.00,5.00 to 6.00,,
Cc1ncc2c(N)nc3cc(F)c(C(=O)N(Cc4ccc(C(F)(F)F)cn4)c4cnn(C)n4)cc3n12 [Example 83],> 7.00,5.00 to 6.00,,
CCn1cc(N(Cc2ccc(C(F)(F)F)cn2)C(=O)c2cc3c(cc2F)nc(N)c2cnc(C)n23)c(C)n1 [Example 129],> 7.00,5.00 to 6.00,,
Cc1ncc2c(N)nc3cc(F)c(C(=O)N4[C@H](C)COC[C@@H]4c4cn5ccccc5n4)cc3n12 [Example 38],6.00 to 7.00,5.00 to 6.00,,
CCN(Cc1ccc(OC2CC2)cn1)C(=O)c1cc2c(cc1F)nc(N)c1cnc(C)n12 [Example 85],> 7.00,5.00 to 6.00,,
Cc1ncn2c1c(N)nc1cc(F)c(C(=O)N3C(C)COCC3c3ccc(C(F)(F)F)cn3)cc12 (stereo not drawn) [Example 155],,,> 7.00,5.00 to 6.00
COc1ccc(N(Cc2ccc(OC3CC3)cn2)C(=O)c2cc3c(cc2F)nc(N)c2cnc(C)n23)cn1 [Example 146],> 7.00,5.00 to 6.00,,
Cc1ncc2c(N)nc3cc(F)c(C(=O)N(C)C4COc5cc(Br)ccc54)cc3n12 (stereo not drawn) [Example 40],6.00 to 7.00,5.00 to 6.00,,
"CCN(Cc1ccc(C(F)(F)F)cn1)C(=O)c1ccc2nc(N)c3c(C)nc(C)n3c2c1 [Example 15, 4-Amino-N-ethyl-1,3-dimethyl-N-((5-trifluoromethyl)pyridin-2-ylmethyl) imidazolo[1,5-a]quinoxalin-8-carboxamide]",6.00 to 7.00,5.00 to 6.00,,
Cc1ncc2c(N)nc3cc(F)c(C(=O)N(Cc4ccc(C(F)(F)F)nn4)c4cnn(C)c4)cc3n12 [Example 119],6.00 to 7.00,5.00 to 6.00,,
Cc1ncc2c(N)nc3cc(F)c(C(=O)N(Cc4ccc(C(F)(F)F)cn4)c4ccn(CCO)n4)cc3n12 [Example 117],6.00 to 7.00,5.00 to 6.00,,

# Other lines, results leading:
"pIC50 ([1]; HCT116-MTAP null, 144 h)","pIC50 (HCT116 MTAP WT cells; Homo sapiens, HCT-116, 144 h)",pIC50 [1],pIC50 (HCT116 MTAP WT cells),Compound
> 7.00,5.00 to 6.00,,,Cc1ncc2c(N)nc3cc(F)c(C(=O)N(Cc4ccc(OC5CC5)nn4)c4ccnn4C)cc3n12 [Example 215]
> 7.00,5.00 to 6.00,,,Cc1ncn2c1c(N)nc1cc(F)c(C(=O)N3C(C)COCC3c3ccc(C(F)(F)F)cc3)cc12 (stereo not drawn) [Example 282]
6.00 to 7.00,5.00 to 6.00,,,Cc1nn(C)cc1N(Cc1ccc(C(F)(F)F)cn1)C(=O)c1ccc2nc(N)c3c(C)nc(C)n3c2c1 [Example 190]
> 7.00,5.00 to 6.00,,,CCOc1ccc(CN(C(=O)c2cc3c(cc2F)nc(N)c2cnc(C)n23)c2ccnn2C)nc1 [Example 212]
6.00 to 7.00,5.00 to 6.00,,,Cc1ncc2c(N)nc3cc(F)c(C(=O)N(Cc4cnn(C5CCOCC5)c4)c4ccnn4C)cc3n12 [Example 227]
> 7.00,5.00 to 6.00,,,Cc1cccc(-c2csc(CN(CC(C)C)C(=O)c3ccc4nc(N)c5c(C)ncn5c4c3)n2)n1 [Example 312]
> 7.00,5.00 to 6.00,,,Cc1nn(C)cc1N(Cc1ncc(C(F)(F)F)s1)C(=O)c1cc2c(cc1F)nc(N)c1cnc(C)n12 [Example 203]
6.00 to 7.00,5.00 to 6.00,,,Cc1ncc2c(N)nc3cc(F)c(C(=O)N(Cc4ccncn4)c4ccnn4C)cc3n12 [Example 232]
> 7.00,5.00 to 6.00,,,Cc1ncc2c(N)nc3cc(F)c(C(=O)N4C(C)COCC4c4ccc(C(F)(F)F)cn4)cc3n12 (stereo not drawn) [Example 273]
> 7.00,5.00 to 6.00,,,CCN(Cc1cn2cc(C(F)(F)F)ccc2n1)C(=O)c1cc2c(cc1F)nc(N)c1c(C)ncn12 [Example 285]
> 7.00,5.00 to 6.00,,,Cc1cnc(C)c(N(Cc2ccc(C(F)(F)F)cn2)C(=O)c2cc3c(cc2F)nc(N)c2cnc(C)n23)c1 [Example 196]
> 7.00,5.00 to 6.00,,,Cc1ncn2c1c(N)nc1ccc(C(=O)N(Cc3nc(C4=CCOCC4)cs3)CC(C)C)cc12 [Example 303]
6.00 to 7.00,6.00 to 7.00,,,COc1ccc(C2COCC(C)N2C(=O)c2cc3c(cc2F)nc(N)c2c(C)ncn23)nn1 (stereo not drawn) [Example 278]
> 7.00,6.00 to 7.00,,,CCn1nccc1N(Cc1ccc(C(F)(F)F)cn1)C(=O)c1cc2c(cc1F)nc(N)c1cnc(C)n12 [Example 206]
> 7.00,5.00 to 6.00,,,Cc1ncn2c1c(N)nc1ccc(C(=O)N(Cc3nc(-c4ncccn4)cs3)CC(C)C)cc12 [Example 305]
> 7.00,5.00 to 6.00,,,Cc1ncc2c(N)nc3cc(F)c(C(=O)N(Cc4ccc(OC5COC5)cn4)c4ccnn4C)cc3n12 [Example 217]
> 7.00,5.00 to 6.00,,,Cc1ccc(CN(C(=O)c2cc3c(cc2F)nc(N)c2cnc(C)n23)c2ccnn2C)nc1 [Example 214]
6.00 to 7.00,5.00 to 6.00,,,Cc1ncc2c(N)nc3cc(F)c(C(=O)N(Cc4cnn(CC(F)(F)F)c4)c4ccnn4C)cc3n12 [Example 319]
> 7.00,6.00 to 7.00,,,Cc1nn(C)cc1N(Cc1ccc(C(F)(F)F)nn1)C(=O)c1cc2c(cc1F)nc(N)c1c(C)ncn12 [Example 193]
> 7.00,5.00 to 6.00,,,Cc1ncc2c(N)nc3cc(F)c(C(=O)N(Cc4cnn(-c5ccccn5)c4)c4ccnn4C)cc3n12 [Example 234]
> 7.00,5.00 to 6.00,,,"Cc1cn(C)c(N(Cc2ccc(C(F)(F)F)cn2)C(=O)c2cc3c(cc2F)nc(N)c2cnc(C)n23)n1 [Example 210, 4-Amino-N-(1,4-dimethyl-1H-imidazol-2-yl)-7-fluoro-1-methyl-N-((5-(trifluoromethyl)pyridin-2-yl)methyl)imidazolo[1,5-a]quinoxalin-8-carboxamide]"
